Results from US6551999B1, “Angiogenesis inhibitor” (Senju Pharmaceutical Co., Ltd., priority 1995, dated 2003).
Ends that are not written are not given here.

Tests used:
[1] = biological target: T1, papain (Carica papaya, UniProt P00784); assay: Assay of papain-inhibitory activity (casein substrate); type: biochemical; conditions: 60 minutes at 30° C., pH 8.0
T1 sequence (P00784 134-345): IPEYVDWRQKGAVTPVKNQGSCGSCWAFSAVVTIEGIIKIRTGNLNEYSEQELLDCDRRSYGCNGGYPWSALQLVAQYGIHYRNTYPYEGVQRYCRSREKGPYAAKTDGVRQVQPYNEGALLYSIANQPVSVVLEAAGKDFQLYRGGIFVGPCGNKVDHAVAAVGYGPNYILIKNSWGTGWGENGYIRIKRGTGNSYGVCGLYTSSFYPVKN
Method: (§1) The activity of papain which is a cysteine protease and of trypsin (Sigma) which is a serine protease was assayed in accordance with the method described in the literature [Anal. Biochem., 208, 387-392, 1993]. Thus, to a solution containing 0.5 mg/ml casein, 50 mM Tris-HCl (pH 8.0), 20 mM dithiothreitol, and 0.2 mM EDTA was added 2.5 μl of dimethyl sulfoxide containing a varying concentration of the test drug as well as 0.03 unit of papain or trypsin to initiate the reaction. The final liquid volume was adjusted to 250 μl. After 60 minutes of reaction at 30° C., 100 μl of the reaction mixture was transferred to another vessel and following addition of 50 μl of purified water and 100 μl of 50% Coumassie brilliant blue solution, the mixture was allowed to stand at room temperature for 15 minutes. The absorbance of the mixture was then measured at 595 nm. Using the value found similarly by adding 2.5 μl of dimethyl sulfoxide not containing the test drug as control and the value found without addition of the enzyme as blank, IC50 was determined in the same manner as above.

[2] = biological target: T2, trypsin (UniProt P00760); assay: Assay of trypsin-inhibitory activity (casein substrate); type: biochemical; conditions: read-out: Trypsin 50% Inhibitory concentration (IC50); 60 minutes at 30° C., pH 8.0
T2 sequence (P00760 1-246): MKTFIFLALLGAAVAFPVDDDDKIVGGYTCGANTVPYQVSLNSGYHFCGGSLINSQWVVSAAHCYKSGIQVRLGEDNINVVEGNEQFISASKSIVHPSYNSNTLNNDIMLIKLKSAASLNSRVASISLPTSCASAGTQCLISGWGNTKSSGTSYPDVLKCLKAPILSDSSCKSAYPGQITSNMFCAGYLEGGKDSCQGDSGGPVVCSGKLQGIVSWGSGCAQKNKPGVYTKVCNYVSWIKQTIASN
Method: as §1

[3] = biological target: T3, μ-calpain (Homo sapiens, UniProt P07384); assay: μ-Calpain-inhibitory activity (casein substrate); type: biochemical; conditions: 60 minutes at 30° C., pH 7.4, 4 mM calcium chloride
T3 construct: purchased Nakalai Tesque
T3 sequence (P07384 1-714): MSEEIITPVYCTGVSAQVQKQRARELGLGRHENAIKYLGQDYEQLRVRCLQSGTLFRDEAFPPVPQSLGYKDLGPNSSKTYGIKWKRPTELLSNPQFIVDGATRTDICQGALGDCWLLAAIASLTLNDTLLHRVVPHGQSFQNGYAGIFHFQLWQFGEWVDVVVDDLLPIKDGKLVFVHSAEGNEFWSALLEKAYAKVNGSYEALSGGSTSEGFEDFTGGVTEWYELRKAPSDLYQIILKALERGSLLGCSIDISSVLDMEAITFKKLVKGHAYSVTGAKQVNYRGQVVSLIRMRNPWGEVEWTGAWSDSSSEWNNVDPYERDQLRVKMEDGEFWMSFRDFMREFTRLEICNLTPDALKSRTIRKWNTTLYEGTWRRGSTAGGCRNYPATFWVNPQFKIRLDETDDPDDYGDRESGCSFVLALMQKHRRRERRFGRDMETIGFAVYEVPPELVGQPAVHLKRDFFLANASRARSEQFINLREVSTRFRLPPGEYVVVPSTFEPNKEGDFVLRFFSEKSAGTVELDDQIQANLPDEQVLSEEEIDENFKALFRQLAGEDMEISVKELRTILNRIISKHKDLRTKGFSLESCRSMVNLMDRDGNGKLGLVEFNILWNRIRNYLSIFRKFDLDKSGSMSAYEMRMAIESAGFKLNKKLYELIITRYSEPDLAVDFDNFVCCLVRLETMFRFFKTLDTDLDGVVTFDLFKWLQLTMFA
T3 sequence (P04632 1-268 partner): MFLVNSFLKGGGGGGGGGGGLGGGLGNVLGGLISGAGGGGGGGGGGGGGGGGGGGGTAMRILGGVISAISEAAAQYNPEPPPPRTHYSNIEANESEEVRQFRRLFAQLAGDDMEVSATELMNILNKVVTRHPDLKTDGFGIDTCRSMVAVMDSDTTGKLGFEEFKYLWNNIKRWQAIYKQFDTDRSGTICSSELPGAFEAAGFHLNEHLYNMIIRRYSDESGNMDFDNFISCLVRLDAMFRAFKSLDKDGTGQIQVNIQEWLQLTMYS
Method: Thus, to a solution containing 0.5 mg/ml casein, 50 mM Tris-HCl (pH 7.4), 20 mM dithiothreitol, and 4 mM calcium chloride was added 2.5 μl of a dimethyl sulfoxide solution containing a varying concentration of the test drug as well as 0.03 unit of μcalpain to initiate the reaction. The final liquid volume was 250 μl. After 60 minutes of reaction at 30° C., 100 μl of the reaction mixture was transferred to another vessel, to which 50 μl of purified water and 100 μl of 50% Coumassie brilliant blue solution were added. […] As a control, 2.5 μl of dimethyl sulfoxide not containing the test drug was added and the mixture was treated in the same manner as above. […] Similarly, the value found by adding 0.2 mM EDTA in lieu of 4 mM aqueous calcium chloride solution was used as the blank value. […] [formula]

[4] = biological target: T4, cathepsin L (Homo sapiens, UniProt P07711); assay: Assay of cathepsin L-inhibitory activity (Z-Phe-Arg-MCA); type: biochemical; conditions: 20 minutes at 30° C., pH 5.5
T4 construct: purchased Cosmo Bio
Method: The activity of cathepsin L (Cosmo Bio), a cysteine protease, was assayed by the method described in the literature [Methods in Enzymology, 80, 535-561, 1981]. Thus, to a solution containing 85 mM acetate buffer (pH 5.5), 2 mM dithiothreitol, 1 mM EDTA, 2 μg cathepsin L, and a varying concentration of the test compound was added 50 μl of 20 μM carbobenzoxy-L-phenylalanyl-L-arginine-4-methylcoumaryl-7-amide (Z-Phe-Arg-MCA) to initiate the reaction at the final liquid volume of 200 μl. After 20 minutes of reaction at 30° C., 20 μl of 1 M Tris-HCl (pH 8.0) was added so as to stop the reaction. The amount of liberated 4-methyl-7-aminocoumarin was determined with a fluorospectrometer at an excitation wavelength of 360 nm and a fluorescent emission wave length of 450 nm. Using the value found without addition of the test drug as control and the value found without addition of the enzyme as blank, IC50 was determined in the same manner as above.

[5] = test system: angiogenesis in cornea of guinea pig; assay: Angiogenesis in cornea of guinea pig by transplantation of bFGF-containing pellet; type: in vivo; conditions: 9 days posttransplantation; for Observation of cornea with a slit lamp: appearance of newly formed blood vessels compared to the control group: test pellet (27 mer calpastatin peptide 0.03 and 0.1 μmole, leupeptin 0.1 μmole) together with bFGF (500 ng) pellet; for Wet weight of cornea compared to the control group / Amount of albumin in cornea compared to the control group: test pellet together with bFGF pellet; for Amount of albumin in cornea compared to the control group: SDS-PAGE image analysis
Method: (1) Method for Preparing Pellets for Transplantation
A solution (5 μl) of 8% ethylene vinyl acetate copolymer (EVA) in dichloromethane was dropped on a plate made of Tefron, air-dried, and 0.0167 w/v % bFGF (3 μl) was dropped thereon and air-dried. After drying, the obtained product was rounded into a small rod to give a bFGF (500 ng)-containing pellet.
Using a test solution instead of 0.0167 w/v % bFGF, a test solution-containing pellet was prepared in the same manner as above. The test solution-containing pellets were prepared to contain 27 mer calpastatin peptide (0.03 μmole and 0.1 μmule/pellet, Sigma) and leupeptin (0.1 μmole/pellet, PEPTIDE […], INC.).
As a control, a pellet made of EVA alone was prepared and used as a vehicle pellet.
(2) Transplantation of Pellet into Cornea of Guinea Pig
The procedure followed the method of M. Kusaka et al. [Biochem. Biophys. Res. Comm., vol. 174, pp. 1070-1076 (1991)]. That is, male guinea pigs weighing 300-400 g were anesthetized with a 1:1 mixture of Ketalar 50 (ketamin hydrochloride, Sankyo Company, Limited) and Celactal (xylazine hydrochloride, Bayer, Ltd.). A pocket was formed in the intercellular layer of corneal stroma layer of both eyes from corneal limbus to the center of cornea, using a 0.5 mm width ophthalmic spatula. A test solution-containing pellet was inserted into the pocked thus formed, and a bFGF-containing pellet was inserted in adjacency thereto. For prevention of infection, ofloxacin eye ointment [Tarivid eye ointment (ofloxacin 0.3%, manufactured by Santen Pharmaceutical Co., Ltd.) was instilled once immediately after insertion of the pellets. Thereafter, 0.3% lomefloxacin (lomeflon ophthalmic otologic solution, manufactured by Senju Pharmaceutical Co., Ltd.) was instilled once a day for 5 days.
(3) Evaluation of the Effects of Cysteine Protease Inhibitor
The blood vessel newly formed in cornea which is an avascular tissue had high permeability, and the wet weight and plasma content were expected to elevate due to incurrent of plasma components as a result of high permeability. At 9 days posttransplantation of pellet, guinea pigs were euthanized and cornea was collected. The obtained cornea was weighed (wet weight). Then, it was homogenized, and subjected to centrifugation. The obtained water soluble protein was separated by SDS polyacrylamide gel electrophoresis. After electrophoresis, the gel was stained with Coomassie Brilliant Blue. By image analysis (NIH Image 1.31), albumin which is one of the major proteins in plasma was quantitatively assayed. As the standard substance, guinea pig serum albumin was used.

T4 sequence (P07711 114-333, species assumed): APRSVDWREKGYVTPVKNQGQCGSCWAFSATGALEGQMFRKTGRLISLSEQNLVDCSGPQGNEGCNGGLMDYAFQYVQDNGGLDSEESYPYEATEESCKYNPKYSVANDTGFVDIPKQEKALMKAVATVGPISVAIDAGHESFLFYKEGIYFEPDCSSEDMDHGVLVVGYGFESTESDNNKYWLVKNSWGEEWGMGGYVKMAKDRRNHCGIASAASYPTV

Compound	IC50 [1] [µM]	IC50 [2] [µM]	IC50 [3] [µM]	IC50 [4] [µM]	Observation of cornea with a slit lamp: appearance of newly formed blood vessels compared to the control group [5]	Wet weight of cornea compared to the control group [5]	Amount of albumin in cornea compared to the control group [5]
O=C(O)[C@H]1O[C@@H]1C(=O)N[C@@H](Cc1ccccc1)C(=O)N1CCN(c2ccc(F)cc2)CC1 [Compound 11]	0.11	> 3000	2.9	0.012	–	–	–
CC(C)C[C@H](NC(=O)[C@H]1O[C@@H]1C(=O)O)C(=O)N1CCN(c2ccc(F)cc2)CC1 [Compound 13]	0.079	> 3000	0.81	0.029	–	–	–
Cc1ccc(S(=O)(=O)N2CCN(C(=O)[C@H](CC(C)C)NC(=O)[C@H]3O[C@@H]3C(=O)O)CC2)cc1 [Compound 16, (2s,3s)-3-[[[[(1s)-1-[[4-(4-methylphenylsulfonyl)-1-piperazinyl]carbonyl]-3-methyl]butyl]amino]carbonyl]oxiranecarboxylic acid]	0.21	> 3000	0.64	0.082	–	–	–
CC(C)C[C@H](NC(=O)[C@H]1O[C@@H]1C(=O)O)C(=O)N1CCN(c2ccccc2Cl)CC1 [Compound 17, (2s,3s)-3-[[[[(1s)-1-[[4-(2-chlorophenyl)-1-piperazinyl]carbonyl]-3-methyl]butyl]amino]carbonyl]oxiranecarboxylic acid]	0.062	> 3000	0.35	0.027	–	–	–
O=C(O)[C@H]1O[C@@H]1C(=O)NCC(=O)N1CCN(c2ccccc2Cl)CC1 [Compound 22, (2s,3s)-3-[[[[[4-(2-chlorophenyl)-1-piperazinyl]carbonyl]methyl]amino]carbonyl]oxiranecarboxylic acid]	4	> 3000	18	38	–	–	–
CCC(C)[C@H](NC(=O)[C@H]1O[C@@H]1C(=O)O)C(=O)N1CCN(c2ccccc2Cl)CC1 (stereo partly shown) [Compound 24, (2s,3s)-3-[[[[(1s)-1-[[4-(2-chlorophenyl)-1-piperazinyl]carbonyl]-2-methyl]butyl]amino]carbonyl]oxiranecarboxylic acid]	0.047	> 3000	0.84	0.009	–	–	–
CC(C)(C)[C@H](NS(=O)(=O)c1ccc2ccccc2c1)C(=O)N[C@H](C=O)Cc1c[nH]c2ccccc12 [Compound 51, N-(2-naphthalenesulfonyl)-L-tert-leucyl-L-tryptophanal]	–	–	1.1	–	–	–	–
CC(C)[C@H](NS(=O)(=O)c1ccc(F)cc1)C(=O)NC(C=O)CC1CCCCC1 (stereo partly drawn) [Compound 52, N-(4-fluorophenylsulfonyl)-L-valyl-L-cyclohexylalaninal]	–	–	0.03	–	–	–	–
CC(C)[C@H](NS(=O)(=O)c1ccc2ccccc2c1)C(=O)NC(C=O)CC1CCCCC1 (stereo partly drawn) [Compound 53, N-(2-naphthalenesulfonyl)-L-valyl-L-cyclohexylalaninal]	–	–	0.0083	–	–	–	–
CC(C)[C@H](NS(=O)(=O)c1ccc(Cl)cc1)C(=O)NC(C=O)CC1CCCCC1 (stereo partly drawn) [Compound 54, N-(4-chlorophenylsulfonyl)-L-valyl-L-cyclohexylalaninal]	–	–	0.014	–	–	–	–
CC(=O)N[C@@H](CC(C)C)C(=O)N[C@@H](CC(C)C)C(=O)N[C@H](C=O)CCCNC(=N)N [leupeptin]	–	–	–	–	the degree of appearance was mild	suppressed increase in the wet weight of cornea	suppressed increase in the amount of albumin in cornea
DPMSSTYIEELGKREVTIPPKYRELLA [27 mer calpastatin peptide, from Sigma]	–	–	–	–	the degree of appearance was mild	suppressed increase in the wet weight of cornea	suppressed increase in the amount of albumin in cornea
